The values that follow come from patent US20210267978A1, “NANOPARTICLE FORMULATIONS OF IKE AND METHODS OF USE THEREOF” (The Trustees of Columbia University in the City of New York, priority 2018, published 2021).

One data set concerns SUDHL-6 cells. As to the kind of experiment: Free fatty acid cell survival test with or without IKE (CellTiter-Glo). Format: cell-based. The following applies: for toxicity of free fatty acid to cells: 100 μM, 24 hours; for effect of free fatty acid on IKE-induced ferroptosis: 10 μM fatty acid with IKE. From the text:
Relative Area Under Curve (AUC) to DMSO cotreatment was used to indicate the sensitization or protection effect of free fatty acids to IKE-induced ferroptosis.
Background: ATP-based viability assays read luminescence as a measure of living cells.

Data set [1] can be described thus: Erastin and IKE solubility measurements (nephelometry). Format: physicochemical. The protocol: Solubility measurement samples were prepared in a 96-well Corning Costar plate with two at 1% and 5% DMSO v/v with a total sample volume of 200 μL in MilliQ water. A BMG Labtech NEPHELOstar nephelometer was used to measure turbidity of the samples with the following parameters per the instrument manufacturer: Gain=80, Laser Focus=2.50 mm, and Laser Intensity=90%. Samples were shaken in the nephelometer by orbital shaking for 3 s prior to the turbidity measurement. Sample values were blanked in the instrument software using the corresponding water and DMSO condition values. Turbidity 4000 NTU Calibration Standard-Formazin (Millipore-Sigma) was used as a positive control for all turbidity measurements. The turbidity of each sample was measured within 20 minutes of initial preparation. After the initial measurement, the sample plates were covered with aluminum sealing film and allowed to sit overnight at room temperature prior to re-measuring.

Data set [2] has as its system SUDHL6 cells. Nature of the data set: qPCR analysis of gene expression in cell culture. Format: cell-based. The following applies: SUDHL6 cells. The procedure: To perform qPCR analysis in cell culture, DLBCL cells were treated with 0-10 μM IKE, Fer-1, or β-Me for the indicated times. RNA was extracted using the Qiashredder and Qiagen RNeasy Mini kits (Qiagen) according to the manufacture's protocol. 2 μg RNA from each sample was reversed transcribed to cDNA using a High Capacity cDNA Reverse Transcription Kit (Thermo Fisher Scientific, 4368814). Quantitative PCR reactions were performed using Power SYBR Green PCR Master Mix (Applied Biosystems) with triplicate measurement on ViiA 7 Real-Time PCR instrument (Thermo Fischer). HPRT1 was used as an internal reference. Differences in mRNA levels compared with HPRT1 were computed between vehicle and experimental groups using the ΔΔCt method. The primers used in the study were listed below.

The test system of data set [3] is SUDHL6 cells. Nature of the data set: C-11 BODIPY lipid peroxidation measurement (flow cytometry). Format: cell-based. Conditions: 10 μM fer-1 co-treatment. The procedure:
0.20 million SUDHL-6 cells were seeded in sixc^− well plates and treated with DMSO, IKE, or Fer-1 at specific concentration. The final cell density of 0.05 million cells/mL. After 24 h, cells were harvested by centrifuging at 300×g for 5 min. Cells were resuspended in 500 μL HBSS containing 2 μM C11-BODIPY (BODIPY 581/591 C11) (Thermo Fisher Scientific, D3861) and incubated at 37° C. for 15 min. Cells were pelleted and resuspended in HBSS. Fluorescence intensity was measured on the FL1 channel with gating to record live cells only (gate constructed from DMSO treatment group). A minimum of 10,000 cells were analyzed per condition.
On the technique in general: In flow cytometry, cells or beads pass a laser one at a time.

The test system of a further data set is SUDHL 6 cells. As to the kind of experiment: Measurement of IKE PEG-PLGA cellular activity (CellTiter-Glo, 24 h). Format: cell-based. The following applies: fer-1 co-treatment. The procedure:
DLBCL cells or HT-1080 cells were plated at 2,000 cells per well in white 384-well plates (32 μL per well) in technical duplicates and incubated overnight. The cells were then treated with 8 μL medium containing a two-fold dilution series of vehicle 1 (DMSO), IKE, Fer-1, vehicle 2 (unfunctional PEG-PLGA nanoparticles), or IKE PEG-PLGA nanoparticles. The final concentration of IKE in PEG-PLGA nanoparticles were measured by LC-MS as described in the sections below. After 24 h incubation with compounds, 40 μL of 50% CellTiter-Glo (Promega) 50% cell culture medium was added to each well and incubated at room temperature with shaking for 15 min. Luminescence was measured using a Victor X5 plate reader (PerkinElmer). All cell viability data were normalized to the DMSO vehicle condition. Experiments were performed in three independent times with different passages for each cell line.

The subject of a further data set is DLBCL cell lines. As to the kind of experiment: Fer-1 co-treatment rescue of IKE-induced cell death (CellTiter-Glo). The following applies: co-treatment with IKE, 24 hours. Format: cell-based. The protocol:
The cell viability was measured by co-treating cells with a two-fold series dilution of IKE (starting from 100 μM) and two-fold series dilution of Fer-1 (starting from 200 μM) for 24 hours followed by a Cell Titor-Glo luminescent cell viability test. […] Data are plotted as the mean±s.d., n=2 biologically replicates. Three independent experiments were performed with similar results.
DLBCL cells were plated at 10,000 cells per well in white 384-well plates (32 μL per well) in technical duplicates and incubated overnight. The cells were then treated with 8 μL medium containing a two-fold dilution series of vehicle (DMSO), IKE (starting from 100 μM) with or without Fer-1 (starting from 200 μM). After 24 h incubation, 40 μL of 50% CellTiter-Glo (Promega) 50% cell culture medium was added to each well and incubated at room temperature with shaking for 15 min. Luminescence was measured using a Victor X5 plate reader (PerkinElmer). All cell viability data were normalized to the DMSO vehicle condition. Experiments were performed three independent times with different passages for each cell line.

The test system of the next data set is GSH. The following applies: Narang et al., 2007; Lo et al., 2010; cited from earlier work.
Data set [4] relates to SUDHL6 cells. Nature of the data set: Reduced glutathione measurement in cell culture (Fluorometric-Green). Format: cell-based. The following applies: 10 μM β-ME co-treatment, 24 h. The procedure: 2.4 million cells were incubated with DMSO, IKE, or β-mercaptoethanol (β-Me) at a density of 0.2 million cells/mL for 24 h. Cells were collected and washed with cold PBS once. Cell number was counted by Vi-Cell. Cells were resuspended in ice cold RIPA buffer (Thermo Fisher Scientific, 89900) with 100 μL/one million cells. Samples were centrifuged for 15 min at 4° C. at 17,000×g. The resulting supernatant was deproteinized using a trichloroacetic acid and sodium bicarbonate solution and kept on ice. The sample was diluted with assay buffer provided in GSH/GSSG Ratio Detection Assay Kit (Abcam, ab13881) ten-fold. Reduced glutathione (GSH) levels were determined using Fluorometric-Green provided in the kit following the manufacture's protocol. 384-well (Corning) low volume black flat bottom polystyrene non-treated microplates 1230F99 were used in this experiment.

The structures appear in SMILES notation.

`CCCCC/C=C\C/C=C\C/C=C\C/C=C\CCCC(=O)O` [arachidonic acid]: the “toxicity of free fatty acid to cells” value in the data set with SUDHL-6 cells is recorded as “toxic to cells”.

As for `CCOc1ccccc1-n1c(C(C)N2CCN(C(=O)COc3ccc(Cl)cc3)CC2)nc2ccccc2c1=O` (stereo not shown) [erastin, reference compound], the “water solubility (in words)” value in data set [1] was “low water solubility”.

Turning to `CCOC(=O)c1ccc(NC2CCCCC2)c(N)c1` [fer-1, ferrostatin-1, reference compound], the “effect of co-treatment on IKE-induced PTGS2 upregulation” value in the data set on SUDHL6 cells [2] (10 μM Fer-1 with 500 nM IKE for 6 hours) is “prevented”. For the same compound, the “effect of co-treatment on IKE-induced CHAC1 upregulation” value with SUDHL6 cells [2] (Fer-1 co-treatment) is “did not inhibit”. In addition, in the data set with SUDHL6 cells [3], the “effect of co-treatment on IKE-induced lipid ROS signal (C11-BODIPY)” value is “inhibited this signal”. For the same compound, the “effect of co-treatment on cell death induced by IKE and IKE PEG-PLGA NPs” value in the data set with SUDHL 6 cells is “rescued cell death”. For the same compound, the “effect of co-treatment on cell death induced by IKE” value with DLBCL cell lines is “rescued cell death”.

In the case of `CCCCCCCC/C=C\CCCCCCCC(=O)O` [oleic acid], in the data set on SUDHL-6 cells, the “effect of free fatty acid on IKE-induced ferroptosis” value is recorded as “protected against ferroptosis”.

Turning to `CCCCCC/C=C\CCCCCCCC(=O)O` [palmitoleic acid], the “effect of free fatty acid on IKE-induced ferroptosis” value with SUDHL-6 cells is reported as “protected against ferroptosis”.

Regarding `O=C(O)c1cc(/N=N/c2ccc(S(=O)(=O)Nc3ccccn3)cc2)ccc1O` [sulfasalazine], the “IC50 for GSH depletion” value with GSH is listed as “millimolar range”.

Regarding `OCCS` [β-ME, β-mercaptoethanol, reference compound], in the data set on SUDHL6 cells [2] (10 μM β-Me with 500 nM IKE for 6 hours), the “effect of co-treatment on IKE-induced upregulation of SLC7A11, CHAC1 and PTGS2 mRNAs” value is “prevented”. Moreover, in the data set on SUDHL6 cells [4], the “effect of co-treatment on GSH depletion by IKE” value is “reversed”.

Regarding `CCCCC/C=C\C/C=C\C/C=C\CCCCC(=O)O` [γ-linolenic acid], the “toxicity of free fatty acid to cells” value in the data set with SUDHL-6 cells is listed as “toxic to cells”.
